This note sets out measurements from patent publication US20240327427A1, “NEW COMPOUNDS FOR THE TREATMENT OF ALZHEIMER'S DISEASE” (Icahn School of Medicine at Mount Sinai, priority 2020, published 2024).

“Also recorded” adds a separate entry of the source.

Common to all, as to assay type: cell-based, human
Experiment [1] deals with ATP6V1A. Description: ATP6V1A mRNA expression in drug-treated NPCs (LINCS profiles). Conditions: drug-treated vs DMSO-treated, LINCS data. From the text: Compounds were screened for drugs that can rescue the in vitro and in vivo phenotypes arising from ATP6V1A deficits. Using their drug repositioning tool, Ensemble of Multiple Drug Repositioning Approaches (EMUDRA) (Zhou et al., 2018b), the inventors matched the disease signature from the BM36-PHG region and the signatures of 3,629 drugs tested in the NPCs in the Library of Integrated Network-based Cellular Signatures (LINCS) project (FIG. 6A). The inventors further prioritized candidate drugs by their potential to increase the mRNA expression of ATP6V1A in the NPCs.
To identify existing drugs that can restore the molecular expression change in the LOAD brains, the inventors performed a drug repositioning analysis using EMUDRA, which provides a novel computational algorithm to match disease signatures and drug-induced signatures. The inventors downloaded drug-treated gene expression profiles (level 3 data of quantile-normalized and log 2 transformed expression levels from human iPSC-derived neural progenitor cells (NPCs) from the Library of Integrated Network-Based Cellular Signatures (LINCS) program. After removing probes sets mapping to multiple genes or without known gene annotation, the remaining data were adjusted for batch effects using linear regression. The mean expression level of multiple probe sets that match to the same gene was used as the expression level for that gene. For each drug, the applied drug signature was the transcriptome-wide expression difference between drug-treated and DMSO-treated gene expression profiles. The inventors matched each of the drug signatures to the LOAD signature using EMUDRA to find drugs that could reverse the LOAD signature. […] In total, 3,629 drug signatures were analyzed and ranked. The inventors further prioritized the top-ranked drugs that can increase ATP6V1A mRNA expression in the NPCs.

Experiment [2] has as its system ATP6V1A. Kind of experiment: ATP6V1A mRNA (qRT-PCR) and protein (western blot) levels in hiPSC-derived NGN2 neurons (iNs). Conditions: for transcriptional and translational levels of ATP6V1A: D21 iNs, concentrations between 1 and 30 μM. As to the method: To verify this discovery, the inventors measured the transcriptional and translational levels of ATP6V1A in D21 iNs treated with the 3 HDAC inhibitors at a series of concentrations between 1 and 30 μM.
CRISPR inhibition (CRISPRi) was used to repress endogenous ATP6V1A in hiPSC-derived NGN2 neurons. […] Next, the inventors investigated whether LQ081-166 rescued the phenotypes of ATP6V1A deficit and reduced neuronal activity.
Quantitative reverse transcription PCR (qRT-PCR) was performed as previously described. Specifically, cell cultures were harvested with Trizol and total RNA extraction was carried out following the manufacturer's instructions. Quantitative transcript analysis was performed using a QuantStudio 7 Flex Real-Time PCR System with the Power SYBR Green RNA-to-Ct Real-Time qPCR Kit (all Thermo Fisher Scientific). Total RNA template (25 ng per reaction) was added to the PCR mix, including primers listed below. qPCR conditions were as follows; 48° C. for 30 min, 95° C. for 10 min followed by 40 cycles (95° C. for 15 s, 60° C. for 60 s). All qPCR data is collected from at least 3 independent biological replicates of one experiment. Data analyses were performed using GraphPad PRISM 6 software.
Cells were rinsed with ice-cold phosphate-buffered saline (PBS), pelleted, and lyzed in RIPA Lysis and Extraction Buffer (Thermo Fisher Scientific, #89900) containing Halt™ Protease and Phosphatase Inhibitor Cocktail (Thermo Fisher Scientific, #78440). Alternatively, MSBB BM36 brain samples were homogenized with similar methods. Samples were sonicated for 1 minute then centrifuged at 13,000× rpm for 10 min. The supernatant was collected, and total protein concentration was determined using Quick Start™ Bradford Protein Assay (Bio-Rad, 5000201) following the manufacturer's instructions.
Images were captured and quantified using the Odyssey® Imaging Systems (LI-COR. Inc.).
(§1) A stock solution of LQ081-166 (molecular weight: 452.63) at 3 mM is prepared in dimethyl sulfoxide (DMSO). Once prepared, aliquot the stock solution into 100 μL amounts and store at −80° C. Avoid repeated freeze-thaw cycles. The stock is diluted 1000× into neuronal medium to obtain 3 μM for assays. After 24-hour treatment, RNA was extracted from cells for quantitative PCR. In the MEA assay, LQ081-166 was added on neuronal differentiation day 14. Replace with medium containing drug or vehicle every 2-3 days until the final recording day.

The test system of experiment [3] is ATP6V1A. Description: ATP6V1A gene expression-based compound screening (qRT-PCR) in hiPSC-derived NPCs. The following applies: for ATP6V1A mRNA level / gene expression: hiPSC-derived NPCs, qRT-PCR vs DMSO. From the text:
Thirty nine new compounds were synthesized by chemical synthesis and evaluated for their capability to elevate the mRNA level of ATP6V1A and the neuronal activities in hiPSC-derived NPCs. […] These disclosures indicate that the chemical structure to the right in LQ081-166 has a structure-activity relationship necessary for ATP6V1A activation.
To identify useful drugs for targeting this novel therapeutic target, the inventors synthesized 39 new compounds by chemical synthesis and evaluated their capability of elevating the mRNA level of ATP6V1A and neuronal activity in hiPSC-derived NPCs.
To improve the potency and efficacy of the drugs, an additional 18 derivatives based on LQ081-166 were synthesized (FIG. 7B). […] The inventors determined that the thioester and benzyl group in LQ081-166 has a structure-activity relationship necessary for ATP6V1A activation.
FIG. 7. ATP6V1A gene expression-based compounds screening. (A) qRT-PCR analysis (N=3-12) to determine the relative changes in ATP6V1A gene expression after exposure to 40 chemical compounds. ****, p<0.0001 (one-way ANOVA). DMSO serves as vehicle control. (B) Molecular modification of LQ081-166 and chemical structure of LQ108-32. (C) qRT-PCR analysis of relative ATP6V1A gene expression after exposure to LQ081-166 derivatives. Grey scale bars in the graph are associated with the categories of molecular modification. Note that LQ108-51/52/53 is a small pool of three LQ081-166 derivatives. (D) Effects of LQ081-166 at 0.3, 1, 3, and 10 μM on ATP6V1A mRNA level after 24-h exposure. *, p<0.05; **, p<0.01 (one-way ANOVA).
Quantitative reverse transcription PCR (qRT-PCR) was performed as previously described. […] Quantitative transcript analysis was performed using a QuantStudio 7 Flex Real-Time PCR System with the Power SYBR Green RNA-to-Ct Real-Time qPCR Kit (all Thermo Fisher Scientific). […]
A stock solution of LQ081-166 (molecular weight: 452.63) at 3 mM is prepared in dimethyl sulfoxide (DMSO). […] After 24-hour treatment, RNA was extracted from cells for quantitative PCR. […]

The subject of experiment [4] is hiPSC-derived NGN2 neurons. Kind of experiment: Multi-electrode array (MEA) neuronal activity. On the procedure: To evaluate electrical activity of NGN2-neurons by MEA, density-matched isogenic NGN2-neuronal populations, co-cultured with pHAs, were prepared as described above. Specifically, at day 3, pHAs were split as 17,000 cells/well in a Matrigel-coated 48W MEA plate (Axion Biosystems, M768-tMEA-48W) and maintained as above. At day 7, NGN2-neurons were detached, spun down and seeded on the pHA culture. Outer space of each well in the plate was filled up with autoclaved/deionized water to minimize the evaporation of marginal wells (“edge effect”) during long-term culture. Half volume of neuronal medium (supplemented with 2% FBS) was replaced with fresh medium including 200 nM Ara-C from day 9 until the end of MEA recording. Electrical activity of neurons was recorded daily during day 14-24. On the recording day, the plate was loaded into the Axion Maestro MEA reader (Axion Biosystems). Recording was performed via AxiS 2.4 for 10 mins. Quantitative analysis of the recording was exported as a Microsoft excel sheet. Data were analyzed using GraphPad PRISM 6 software.
as §1

Take `Nc1ccccc1NC(=O)c1ccc(CNC(=O)OCc2cccnc2)cc1` [BRD-K77908580]: in the experiment with ATP6V1A [1], the “ATP6V1A (log2FC)” value turned out to be 1.54 log2FC.
As for `CCC(=O)CCCCC[C@@H]1NC(=O)[C@H]2CCCCN2C(=O)[C@H]([C@@H](C)CC)NC(=O)[C@H](Cc2cn(OC)c3ccccc23)NC1=O` [apicidin], the “ATP6V1A (log2FC)” value in the experiment with ATP6V1A [1] worked out at 0.99 log2FC.
For the compound `O=C(CCCCCCC(=O)Nc1ccccc1)NO` [SAHA], in the experiment on ATP6V1A [2], the “transcriptional and translational levels of ATP6V1A” value was “ineffective”. Further, in the experiment with ATP6V1A [1], the “ATP6V1A (log2FC)” value is 0.77 log2FC.
In the case of `CC1CC(C)C(=O)C(C(O)CC2CC(=O)NC(=O)C2)C1` (stereo not shown) [BRD-A62184259], in the experiment on ATP6V1A [1], the “ATP6V1A (log2FC)” value is recorded as 1.46 log2FC.
`C[C@]12CC[C@H]3[C@@H](CC[C@]4(O)C[C@@H](O)CC[C@]34C=O)[C@@]1(O)CC[C@@H]2C1=CC(=O)OC1` [BRD-K84595254]: the “ATP6V1A (log2FC)” value in the experiment with ATP6V1A [1] is given as 2.98 log2FC.
For `C[C@@H]1CN([C@@H](C)CO)C(=O)c2cccc(NC(=O)c3ccc(-c4nccs4)cc3)c2O[C@@H]1CN(C)Cc1ccc(C(=O)Nc2ccccc2N)cc1` [BRD-K56196992], the “ATP6V1A (log2FC)” value with ATP6V1A [1] came to 1.47 log2FC.
Same read-out and setting: for `CN(C)c1ccc(C(=O)NCCCCCCC(=O)NO)cc1` [m-344] the value was 0.84 log2FC.
On to `CC[C@H]1CN2CCc3cc(OC)c(OC)cc3C2C[C@@H]1CC1NCCc2cc(OC)c(OC)cc21` (stereo partly shown) [BRD-A25687296], for which, in the experiment with ATP6V1A [1], the “ATP6V1A (log2FC)” value is 2.37 log2FC.
Take `Nc1ccccc1NC(=O)c1ccc(CNC(=O)OCc2cccnc2)cc1` [MS-275]: the “transcriptional and translational levels of ATP6V1A” value in the experiment on ATP6V1A [2] is on record as “ineffective”.
As for `CC[C@H]1CN2CCc3cc(OC)c(OC)cc3[C@@H]2C[C@@H]1C[C@H]1NCCc2cc(O)c(OC)cc21` [BRD-K80348542], the “ATP6V1A (log2FC)” value with ATP6V1A [1] worked out at 1.09 log2FC.
Regarding `CC(/C=C/C(=O)NO)=C\[C@@H](C)C(=O)c1ccc(N(C)C)cc1` [trichostatin a], in the experiment on ATP6V1A [1], the “ATP6V1A (log2FC)” value is reported as 0.61 log2FC.
For `C[C@@H]1C[C@@H]([C@H](O)CC2CC(=O)NC(=O)C2)C(=O)[C@@H](C)C1` [BRD-K36055864], the “ATP6V1A (log2FC)” value in the experiment with ATP6V1A [1] is reported as 2.00 log2FC.
Consider `O=C(CCCCCCC(=O)SCCc1ccccc1)Nc1nc(-c2ccccc2)cs1` [LQ108-32, S-phenethyl 8-oxo-8-((4-phenylthiazol-2-yl)amino)octanethioate], for which, in the experiment with ATP6V1A [3] (listed as LQ081-32), the “ATP6V1A mRNA level / gene expression” value is “did not affect; also recorded: inability to affect”.
Take `C[C@@H]1O[C@@H](O[C@@H]2C=C3CCC4C(CC[C@]5(C)[C@@H](c6ccc(=O)oc6)CC[C@]45O)[C@@]3(C)CC2)[C@H](O)[C@H](O)[C@H]1O` (stereo partly shown) [BRD-A34806832]: in the experiment on ATP6V1A [1], the “ATP6V1A (log2FC)” value turned out to be 1.49 log2FC.
`O=C(CCCCCCSC(=O)CCc1ccccc1)Nc1nc(-c2ccccc2)cs1` [LQ081-166, S-(7-oxo-7-((4-phenylthiazol-2-yl)amino)heptyl) 3-phenylpropanethioate]: the “ATP6V1A mRNA level” value in the experiment on ATP6V1A [2] (ATP6V1A KD hiPSC-derived NGN2 neurons) is on record as “restores ATP6V1A mRNA level”; in the experiment with ATP6V1A [2] (NGN2 neurons, 3 μM, 24 hours), “significantly increased”. The “dose dependence of effect on ATP6V1A mRNA level” value in the experiment with ATP6V1A [3] (0.3, 1, 3 and 10 μM, 24-h exposure) is on record as “dose-dependent effect”. The “ATP6V1A mRNA level / gene expression” value in the experiment with ATP6V1A [3] was “most significantly increased”. Besides, the “restoration of neuronal activity (MEA)” value in experiment [4] (ATP6V1A KD neurons, regardless of presence/absence of Aβ exposure, 3 μM) is “partially restoring neuronal activity”. In addition, in experiment [4] (NGN2 neurons, 3 μM LQ081-166), the “neuronal activity (MEA)” value is listed as “potent activator of neuronal activity”.
For `O=C(CCCCCN1C(=O)c2cccc3cccc(c23)C1=O)NO` [scriptaid], in the experiment with ATP6V1A [1], the “ATP6V1A (log2FC)” value is given as 0.78 log2FC.
